Laboratory results from patent US7319109B2, “Farnesoid X receptor agonists” (Smith Kline Beecham Corporation, priority 2002, dated 2008).

target: T1, Human FXRα Ligand Binding Domain (FXRα LBD) (Homo sapiens, UniProt Q96RI1); assay: FXR Affinity Binding Assay: ligand mediated cofactor peptide (SRC-1 LCD2, 676-700) interaction, time resolved fluorescence; details: FXRα LBD-APC / europium labeled SRC-1 peptide, TRF signal, at least 2 hours at room temperature; read-out: Activity (pEC50) (converted)
T1 construct: polyhistidine (N); made in house; host or cells: E. coli BL21 (DE3), pRSET-A vector
T1 sequence (Q96RI1 222-472 isoform Q96RI1-2): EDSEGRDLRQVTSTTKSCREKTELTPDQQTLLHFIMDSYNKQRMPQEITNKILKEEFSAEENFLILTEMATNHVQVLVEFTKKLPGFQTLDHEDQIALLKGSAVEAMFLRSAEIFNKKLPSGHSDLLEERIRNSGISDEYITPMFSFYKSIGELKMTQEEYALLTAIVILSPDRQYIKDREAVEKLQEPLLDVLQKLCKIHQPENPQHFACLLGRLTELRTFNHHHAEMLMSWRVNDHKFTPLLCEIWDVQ
Method: Determination of a ligand mediated cofactor peptide interaction to quantify ligand binding to the nuclear receptor Farnasoid X Receptor (FXR). The method measures the ability of putative ligands to modulate the interaction between the purified bacterial expressed FXRα (LBD) and a synthetic biotinylated peptide based on residues 676-700 of SRC-1(LCD2, 676-700). […] Detection of the associated complex is measured by time resolved fluorescence (TRF). The purified LBD of FXR is labeled with biotin then mixed with stoichiometric amounts of APC labeled streptavidin (Molecular Probes). The biotinylated peptide is then mixed with a ½ stoichiometric amount of europium labeled streptavidin (Wallac Inc). Each is then blocked with a 5 fold excess of biotin and allowed to equilibrate for 15 min. Equimolar amounts of receptor and peptide are mixed together and allowed to equilibrate for at least 30 min prior to the addition to either a variable or constant concentrations of the sample for which the affinity is to be determined. After equilibration, the time-resolved fluorescent signal is quantitated using a fluorescent plate reader. The affinity of the test compound is estimated from a plot of fluorescence versus concentration of test compound added.
Ligands that promote the complex formation induce a concentration-dependent increase in time-resolved fluorescent signal.
Human FXRα Ligand Binding Domain (FXRα LBD) was expressed in E.coli strain BL21 (DE3) as an amino-terminal polyhistidine tagged fusion protein. Expression was under the control of an IPTG inducible T7 promoter. DNA encoding this recombinant protein was subcloned into the pRSET-A expression vector (Invitrogen). The coding sequence of Human FXRα LBD was derived from Genbank accession number U 68233 (amino acids 222 to 472).
Routinely, 30-40 g cell paste (equivalent to 2-3 liters of the fermentation batch) was resuspended in 200-250 mL TBS, pH 7.2 (25mM Tris, 150 mM NaCl). Cells were lysed by passing 3 times through a French Press and cell debris was removed by centrifugation (30 minutes, 20,000 g, 4° C.). The cleared supernatant was filtered through course pre-filters, and TBS, pH 7.2, containing 500 mM imidazole was added to obtain a final imidazole concentration of 50 mM. This lysate was loaded onto a column (6×8 cm) packed with Sepharose [Ni^++ charged]Chelation resin (Pharmacia) and pre-equilibrated with TBS pH 7.21 50 mM imidazole. After washing to baseline absorbance with equilibration buffer, the column was washed with one column volume of TBS pH 7.2 containing 90 mM imidazole. FXRαLBD was eluted directly with 365 mM imidazole. Column fractions were pooled and dialyzed against TBS, pH 7.2, containing 0.5 mM EDTA and 5 mM DTT. The dialyzed protein sample was concentrated using Centri-prep 10 K (Amicon) and subjected to size exclusion, using a column (3×90 cm) packed with Sepharose S-75 resin (Pharmacia) pre-equilibrated with TBS, pH 7.2, containing 0.5 mM EDTA and 5 mM DTT.
Purified FXRα LBD was desalted/buffer exchanged using PD-10 gel filtration columns into PBS [100 mM NaPhosphate, pH 7.2, 150 mM NaCl]. FXRα LBD was diluted to approximately 10 μM in PBS and five-fold molar excess of NHS-LC-Biotin (Pierce) was added in a minimal volume of PBS. This solution was incubated with gentle mixing for 30 minutes at room temperature. The biotinylation modification reaction was stopped by the addition of 2000× molar excess of Tris-HCl, pH 8. The modified FXRα LBD was dialyzed against 4 buffer changes, each of at least 50 volumes, PBS containing 5 mM DTT, 2 mM EDTA and 2% sucrose.

EC50 | Structure (SMILES)
102 to 1000 nM | COC(=O)c1ccc(S(=O)(=O)Nc2ccc(OCc3c(-c4c(Cl)cccc4Cl)noc3C(C)C)cc2Cl)cc1 [Example 53, Methyl 4-{[(2-chloro-4-{[3-(2,6-dichlorophenyl)-5-isopropylisoxazol-4-yl]methoxy}-phenyl)amino]sulfonyl}benzoate]
102 to 1000 nM | Cc1cc(OCc2c(-c3c(Cl)cccc3Cl)noc2C(C)C)ccc1NS(=O)(=O)c1cccc(C(=O)O)c1 [Example 39, 3-{[(4-{[3-(2,6-Dichlorophenyl)-5-isopropylisoxazol-4-yl]methoxy}-2-methylphenyl)-amino]sulfonyl}benzoic acid]
102 to 1000 nM | CCN(c1ccc(OCc2c(-c3c(Cl)cccc3Cl)noc2C(C)C)cc1)S(=O)(=O)c1cccc(C(=O)O)c1 [Example 52, 3-{[(4-{[3-(2,6-Dichlorophenyl)-5-isopropylisoxazol-4-yl]methoxy}phenyl)(ethyl)-amino]sulfonyl}benzoic acid]
102 to 1000 nM | COC(=O)c1cccc(S(=O)(=O)N(C)c2ccc(OCc3c(-c4c(Cl)cccc4Cl)noc3C(C)C)cc2C)c1 [Example 35, Methyl 3-{[(4-{[3-(2,6-dichlorophenyl)-5-isopropylisoxazol-4-yl]methoxy}-2-methylphenyl)(methyl)amino]sulfonyl}benzoate]
< 100 nM | Cc1cc(OCc2c(-c3c(Cl)cccc3Cl)noc2C(C)C)ccc1N(C)Cc1ccc(C(=O)O)cc1 [Example 5, 4-[(4-{[3-(2,6-Dichlorophenyl)-5-isopropyl-4-isoxazolyl]methoxy}-2-dimethylanilino)methyl]benzoic acid]
102 to 1000 nM | Cc1cc(OCc2c(-c3c(Cl)cccc3Cl)noc2C(C)C)ccc1OCc1cccc(C(=O)O)c1 [Example 102, 3-[(4-{[3-(2,6-Dichlorophenyl)-5-isopropylisoxazol-4-yl]methoxy}-2-methylphenoxy)-methyl]benzoic acid]
< 100 nM | Cc1cc(OCc2c(-c3c(Cl)cccc3Cl)noc2C(C)C)ccc1CSc1cccc(C(=O)O)c1 [Example 80, 3-[(4-{[3-(2,6-Dichlorophenyl)-5-isopropylisoxazol-4-yl]methoxy}-2-methylbenzyl)thio]-benzoic acid]
< 100 nM | COC(=O)c1ccc(CN(C)c2ccc(OCc3c(-c4ccccc4OC(F)(F)F)noc3C(C)C)cc2C)o1 [Example 21, Methyl 5-{[4-({5-isopropyl-3-[2-(trifluoromethoxy)phenyl]-4-isoxazolyl}methoxy)-2-dimethylanilino]methyl}-2-furoate]
1020 to 10000 nM | CC(C)c1onc(-c2c(Cl)cccc2Cl)c1COc1ccc(NS(=O)(=O)c2cccc(C(=O)O)c2)cc1 [Example 40, 3-{[(4-{[3-(2,6-Dichlorophenyl)-5-isopropylisoxazol-4-yl]methoxy}phenyl)amino]-sulfonyl}benzoic acid]
< 100 nM | Cc1cc(OCc2c(-c3c(Cl)cccc3Cl)noc2C(C)C)ccc1N(C)S(=O)(=O)c1cccc(C(=O)O)c1 [Example 48, 3-{[(4-{[3-(2,6-Dichlorophenyl)-5-isopropylisoxazol-4-yl]methoxy}-2-methylphenyl)-(methyl)amino]sulfonyl}benzoic acid]
102 to 1000 nM | Cc1cc(OCc2c(-c3ccccc3OC(F)(F)F)noc2C(C)C)ccc1N(C)C(=O)c1cccc(C(=O)O)c1 [Example 32, 3-{[4-({5-Isopropyl-3-[2-(trifluoromethoxy)phenyl]-4-isoxazolyl}methoxy)-2-dimethylanilino]carbonyl}benzoic acid]
102 to 1000 nM | COC(=O)c1cccc(COc2ccc(OCc3c(-c4c(Cl)cccc4Cl)noc3C(C)C)cc2C)c1 [Example 100, Methyl 3-[(4-{[3-(2,6-dichlorophenyl)-5-isopropylisoxazol-4-yl]methoxy}-2-methyl-phenoxy)methyl]benzoate]
102 to 1000 nM | Cc1cc(OCc2c(-c3c(Cl)cccc3Cl)noc2C(C)C)ccc1NS(=O)(=O)c1ccc(C(=O)O)cc1 [Example 57, 4-{[(4-{[3-(2,6-Dichlorophenyl)-5-isopropylisoxazol-4-yl]methoxy}-2-methylphenyl)-amino]sulfonyl}benzoic acid]
1020 to 10000 nM | COC(=O)c1ccc(S(=O)(=O)N(C)c2ccc(OCc3c(-c4c(Cl)cccc4Cl)noc3C(C)C)cc2)cc1 [Example 60, Methyl 4-{[(4-{[3-(2,6-dichlorophenyl)-5-isopropylisoxazol-4-yl]methoxy}phenyl)-(methyl)amino]sulfonyl}benzoate]
102 to 1000 nM | CC(C)c1onc(-c2c(Cl)cccc2Cl)c1COc1ccc(NS(=O)(=O)c2cccc(C(=O)O)c2)c(Cl)c1 [Example 46, 3-{[(2-Chloro-4-{[3-(2,6-dichlorophenyl)-5-isopropylisoxazol-4-yl]methoxy}phenyl)amino]sulfonyl}benzoic acid]
102 to 1000 nM | COC(=O)c1cccc(S(=O)(=O)N(C)c2ccc(OCc3c(-c4ccccc4OC(F)(F)F)noc3C(C)C)cc2C)c1 [Example 71, Methyl 3-{[[4-({5-isopropyl-3-[2-(trifluoromethoxy)phenyl]isoxazol-4-yl}methoxy)-2-methylphenyl](methyl)amino]sulfonyl}benzoate]
102 to 1000 nM | Cc1cc(OCc2c(-c3c(Cl)cccc3Cl)noc2C(C)C)ccc1N(C)S(=O)(=O)c1ccc(C(=O)O)cc1 [Example 63, 4-{[(4-{[3-(2,6-Dichlorophenyl)-5-isopropylisoxazol-4-yl]methoxy}-2-methylphenyl)-(methyl)amino]sulfonyl}benzoic acid]
< 100 nM | CCN(c1ccc(OCc2c(-c3c(Cl)cccc3Cl)noc2C(C)C)cc1Cl)S(=O)(=O)c1ccc(C(=O)O)cc1 [Example 65, 4-{[(2-Chloro-4-{[3-(2,6-dichlorophenyl)-5-isopropylisoxazol-4-yl]methoxy}phenyl)-(ethyl)amino]sulfonyl}benzoic acid]
< 100 nM | CC(C)c1onc(-c2c(Cl)cccc2Cl)c1COc1ccc(N(C)S(=O)(=O)c2ccc(C(=O)O)cc2)c(Cl)c1 [Example 62, 4-{[(2-Chloro-4-{[3-(2,6-dichlorophenyl)-5-isopropylisoxazol-4-yl]methoxy}phenyl)-(methyl)amino]sulfonyl}benzoic acid]
102 to 1000 nM | Cc1cc(OCc2c(-c3c(Cl)cccc3Cl)noc2C(C)C)ccc1N(C)C(=O)c1cccc(C(=O)O)c1 [Example 29, 3-[(4-{[3-(2,6-Dichlorophenyl)-5-isopropyl-4-isoxazolyl]methoxy}-2-dimethylanilino)carbonyl]benzoic acid]
1020 to 10000 nM | CC(C)c1onc(-c2c(Cl)cccc2Cl)c1COc1ccc(NS(=O)(=O)c2ccc(C(=O)O)cc2)c(Cl)c1 [Example 56, 4-{[(2-Chloro-4-{[3-(2,6-dichlorophenyl)-5-isopropylisoxazol-4-yl]methoxy}phenyl)-amino]sulfonyl}benzoic acid]
< 100 nM | Cc1cc(OCc2c(-c3ccccc3OC(F)(F)F)noc2C(C)C)ccc1N(C)Cc1ccc(C(=O)O)cc1 [Example 19, 4-{[4-({5-Isopropyl-3-[2-(trifluoromethoxy)phenyl]-4-isoxazolyl}methoxy)-2-dimethylanilino]methyl}benzoic acid]
102 to 1000 nM | COC(=O)c1cccc(C(=O)Nc2ccc(OCc3c(-c4c(Cl)cccc4Cl)noc3C(C)C)cc2Cl)c1 [Example 24, Methyl 3-[(2-chloro-4-{[3-(2,6-dichlorophenyl)-5-isopropyl-4-isoxazolyl]methoxy}anilino)carbonyl]benzoate]
